Measurements from patent publication US8715368B2, “Thiophene azo dyes and laundry care compositions containing the same” (The Procter & Gamble Company, priority 2010, dated 2014).

Assay: Aqueous Partition Value of a dye (water/1-octanol partitioning, absorbance at λmax)
Assay type: physicochemical
Settings: deionized water/1-octanol 10.0 mL each, APV=(Af/Ai)×100%
Method: Dissolve in deionized water to a final volume of 10.0 mL an amount of dye sufficient to provide a solution absorbance value between 0.25 and 1.0, said absorbance being determined at the dye λmax between 400 nm and 750 nm, using a cuvette with 1.0 cm path length. Measure the absorbance of the sample at the dye λmax in a UV/Vis spectrophotometer, then transfer the entire 10.0 mL solution to a 50.0 mL plastic centrifuge tube. Add 10.0 mL of 1-octanol, cap the tube, and mix vigorously for 30 seconds using a Vortex™ mixer. Leave the tube standing undisturbed until the layers cleanly phase separate.
Using a transfer pipette, withdraw an aliquot of the aqueous (bottom) layer and transfer it to a cuvette with 1.0 cm path length for spectrophotometric analysis. Analyze the solution as before, and quantify the absorbance loss at λmax as “% of Dye Remaining in Aqueous Layer” as detailed below: % of Dye Remaining in Aqueous Layer=Aqueous Partition Value (APV)=(Af/Ai)×100% wherein Ai is the initial solution absorbance at λmax and Af is the final solution absorbance at λmax. II. Method for Determining Hueing Efficiency for Detergents • a.) Two 25 cm×25 cm fabric swatches of 16 oz white cotton interlock knit fabric (270 g/square meter, brightened with Uvitex BNB fluorescent whitening agent, from Test Fabrics. P.O. Box 26, Weston, Pa., 18643) are obtained. • b.) Prepare two one liter aliquots of tap water containing 1.55 g of AATCC standard heavy duty liquid (HDL) test detergent. • c.) Add a sufficient amount the dye to be tested to one of the aliquots from Step b.) above to produce an aqueous solution absorbance of 1 AU. • d.) Wash one swatch from a.) above in one of the aliquots of water containing 1.55 g of AATCC standard heavy duty liquid (HDL) test detergent and wash the other swatch in the other aliquot. Such washing step should be conducted for 30 minutes at room temperature with agitation. After such washing step separately rinse the swatches in tap water and air dry the swatches in the dark. • e.) After rinsing and drying each swatch, the hueing efficiency, DE*eff, of the dye is assessed by determining the L*, a*, and b* value measurements of each swatch using a Hunter LabScan XE reflectance spectrophotometer with D65 illumination, 10° observer and UV filter excluded. The hueing efficiency of the dye is then calculated using the following equation: DE*eff=((L*c−L*s)^2+(a*c−a*s)^2+(b*c−b*s)^2)^1/2 • wherein the subscripts c and s respectively refer to the L*, a*, and b* values measured for the control, i.e., the fabric sample washed in detergent with no dye, and the fabric sample washed in detergent containing the dye to be screened. III. Method for Determining Wash Removability • a.) Prepare two separate 150 ml aliquots of HDL detergent solution, according to AATCC Test Method 61-2003, Test 2A and containing 1.55 g/liter of the AATCC HDL formula in distilled water. • b.) A 15 cm×5 cm sample of each fabric swatch from the Method for Determining of Hueing Efficiency For Detergents described above is washed in a Launderometer for 45 minutes at 49° C. in 150 ml of a the HDL detergent solution prepared according to Step 11. a.) above. • c.) The samples are rinsed with separate aliquots of rinse water and air dried in the dark, and then L*, a*, and b* value measurements of each swatch are taken using a Hunter LabScan XE reflectance spectrophotometer with D65 illumination, 10° observer and UV filter excluded. The amount of residual coloration is assessed by measuring the DE*res, calculated using the following equation: DE*res=((L*c−L*s)^2+(a*c−a*s)^2+(b*c−b*s)^2)^1/2 • wherein the subscripts c and s respectively refer to the L*, a*, and b* values measured for the control, i.e., the fabric sample initially washed in detergent with no dye, and the fabric sample initially washed in detergent containing the dye to be screened. The wash removal value for the dye is then calculated according to the formula: % removal=100×(1−DE*res/DE*eff). C. Test Results […]

| Structure (SMILES) | % Dye in Water Layer |
| --- | --- |
| COc1cc(/N=N/c2sc(C#N)c(C)c2C#N)c(C)cc1N(CCn1cc[n+](C)c1)CCn1cc[n+](C)c1 [Example 1] | 97% |
| Cc1cc(N(CCn2cc[n+](C)c2)CCn2cc[n+](C)c2)ccc1/N=N/c1sc(C#N)c(C)c1C#N [Example 2] | 83% |
| CCN(CCOCCOCCOCCOCC[N+](CC)(CC)CC)c1ccc(/N=N/c2sc(C#N)c(C)c2C#N)c(C)c1 [Example 12] | 15% |
| CC[N+](CC)(CC)CCOCCOCCN(CCOCC[N+](CC)(CC)CC)c1cc(OC)c(/N=N/c2sc(C#N)c(C)c2C#N)cc1OC [Example 19] | 78% |
| CC[N+](CC)(CC)CCOCCOCCN(CCOCC[N+](CC)(CC)CC)c1ccc(/N=N/c2sc(C#N)c(C)c2C#N)c(C)c1 [Example 35] | 66% |
| COc1cc(/N=N/c2sc(C#N)c(C)c2C#N)c(C)cc1N(CCOCCOCC[N+](C)(C)CCO)CCOCC[N+](C)(C)CCO [Example 21] | 75% |
| CC[N+](CC)(CC)CCN(CC[N+](CC)(CC)CC)c1ccc(/N=N/c2sc(C#N)c(C)c2C#N)c(C)c1 [Example 36] | 94% |
| CC[N+](CC)(CC)CCOCCOCCN(CCOCC[N+](CC)(CC)CC)c1cc(C)c(/N=N/c2sc(C#N)c(C)c2C#N)cc1OC [Example 18] | 49% |
| COc1cc(/N=N/c2sc(C#N)c(C)c2C#N)c(C)cc1N(CCOCCOCC[N+](CCO)(CCO)CCO)CCOCC[N+](CCO)(CCO)CCO [Example 22] | 56% |
| CCN(CC[N+](CC)(CC)CC)c1ccc(/N=N/c2sc(C#N)c(C)c2C#N)c(C)c1 [Example 7] | 15% |
